Data reported in ChEMBL document CHEMBL4673320, “Structure Elucidation of the spiro-Polyketide Svalbardine B from the Arctic Fungal Endophyte Poaceicola sp. E1PB with Support from Extensive ESI-MS Interpretation” (J Nat Prod, 2020).
Calls of active or inactive are those of the source.

Columns and labels:
SH-SY5Y = assay: Cytotoxicity against human SH-SY5Y cells assessed as reduction in cell viability at 20 uM after 24 hrs by MTT assay; assay type: functional, cell-based
Serratia marcescens = assay: Antibacterial activity against Serratia marcescens ATCC 14756 assessed as reduction in microbial growth at 20 uM after 18 hrs by resazurin based assay; assay type: functional, organism-based
Pseudomonas aeruginosa = assay: Antibacterial activity against Pseudomonas aeruginosa ATCC 10145 assessed as reduction in microbial growth at 20 uM after 18 hrs by resazurin based assay; assay type: functional, organism-based
Yersinia enterocolitica = assay: Antibacterial activity against Yersinia enterocolitica ATCC 23715 assessed as reduction in microbial growth at 20 uM after 18 hrs by resazurin based assay; assay type: functional, organism-based
Salmonella typhimurium = assay: Antibacterial activity against Salmonella typhimurium ATCC 14028 assessed as reduction in microbial growth at 20 uM after 18 hrs by resazurin based assay; assay type: functional, organism-based; details: Salmonella enterica subsp. enterica serovar Typhimurium, DT104 ATCC 14028
Enterobacter cloacae = assay: Antibacterial activity against Enterobacter cloacae ATCC 35030 assessed as reduction in microbial growth at 20 uM after 18 hrs by resazurin based assay; assay type: functional, organism-based
Shigella flexneri = assay: Antibacterial activity against Shigella flexneri ATCC 12020 assessed as reduction in microbial growth at 20 uM after 18 hrs by resazurin based assay; assay type: functional, organism-based
Escherichia coli = assay: Antibacterial activity against Escherichia coli ATCC 25922 assessed as reduction in microbial growth at 20 uM after 18 hrs by resazurin based assay; assay type: functional, organism-based
[1] = system: Staphylococcus ureilyticus; assay: Antibacterial activity against Staphylococcus cohnii subsp. urealyticum assessed as reduction in microbial growth after at 20 uM 18 hrs by resazurin based assay; assay type: functional
[2] = system: Staphylococcus haemolyticus; assay: Antibacterial activity against Staphylococcus haemolyticus ATCC 29970 assessed as reduction in microbial growth at 20 uM after 18 hrs by resazurin based assay; assay type: functional, organism-based
Staphylococcus aureus = assay: Antibacterial activity against Staphylococcus aureus ATCC 25923 assessed as reduction in microbial growth at 20 uM after 18 hrs by resazurin based assay; assay type: functional, organism-based

Measured: Activity

COC(=O)c1cc(OC)cc(O)c1C(=O)C1CC2(CCc3cc(OC)cc(C(=O)OC)c3C2=O)C(=O)C2=C(C)OC(C)=CC21 (stereo unspecified)
inactive: all assays above

COC(=O)c1cc(OC)cc2c1-c1oc(C)cc(=O)c1CO2
inactive: all assays above

CCCc1oc(=O)cc(OC)c1C
inactive: all assays above

COc1cc(O)c2c(c1C)[C@@H](C)[C@@](O)(CO)OC2=O
inactive: all assays above

COc1cc(=O)oc(C[C@H](C)O)c1C
inactive: all assays above

C=C1OC(=O)c2c(O)cc(OC)c(C)c2[C@H]1C
inactive: all assays above
